Experimental findings from publication PMC7562955 (Nature Communications, 2020) are described below.

Values after ≈ are worked out from the molar mass of the structure shown.

In one data set the target is T1, TLR7 (Homo sapiens, UniProt Q9NYK1).
T1 sequence (Q9NYK1 27-1049): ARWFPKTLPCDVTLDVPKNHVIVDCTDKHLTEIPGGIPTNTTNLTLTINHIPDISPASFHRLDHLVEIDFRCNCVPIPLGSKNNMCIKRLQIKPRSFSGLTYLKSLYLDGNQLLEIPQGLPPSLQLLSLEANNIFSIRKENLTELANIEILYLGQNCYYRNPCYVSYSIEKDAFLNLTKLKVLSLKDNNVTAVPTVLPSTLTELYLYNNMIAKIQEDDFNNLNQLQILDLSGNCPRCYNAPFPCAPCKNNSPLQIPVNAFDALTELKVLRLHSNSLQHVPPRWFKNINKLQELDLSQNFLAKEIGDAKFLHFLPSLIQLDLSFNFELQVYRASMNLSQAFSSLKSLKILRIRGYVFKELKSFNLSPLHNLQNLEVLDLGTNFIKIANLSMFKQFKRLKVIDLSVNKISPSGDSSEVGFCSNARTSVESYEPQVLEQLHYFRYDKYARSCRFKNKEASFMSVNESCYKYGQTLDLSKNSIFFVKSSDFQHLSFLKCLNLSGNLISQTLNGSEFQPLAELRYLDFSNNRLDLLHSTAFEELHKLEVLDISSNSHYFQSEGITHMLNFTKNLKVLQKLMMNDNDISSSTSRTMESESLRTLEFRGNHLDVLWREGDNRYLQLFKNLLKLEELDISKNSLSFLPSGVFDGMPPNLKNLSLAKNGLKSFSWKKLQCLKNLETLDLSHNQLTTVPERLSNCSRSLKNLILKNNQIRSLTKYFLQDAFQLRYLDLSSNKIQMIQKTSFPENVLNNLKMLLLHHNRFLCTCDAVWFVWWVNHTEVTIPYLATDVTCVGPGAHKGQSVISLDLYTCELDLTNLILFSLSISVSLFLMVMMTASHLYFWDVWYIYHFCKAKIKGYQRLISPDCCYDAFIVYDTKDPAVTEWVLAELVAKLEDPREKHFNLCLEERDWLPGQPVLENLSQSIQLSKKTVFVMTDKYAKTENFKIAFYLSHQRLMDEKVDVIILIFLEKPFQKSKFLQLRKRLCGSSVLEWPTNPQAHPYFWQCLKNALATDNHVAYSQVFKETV
The data set is described as follows: Human TLR7 reporter gene agonistic activity assay. The format is cell-based. On the set-up: host or cells: HEK293 (TLR7/NF-κB/SEAPorter). As to the method: Compounds were dissolved in dimethyl sulfoxide. Before stimulation with compound, Human TLR7 reporter cell line (Novus Biological) was seeded in 96-well microtiter plate (AGC techno glass) at 5 × 10^4 cells/well in DMEM (GIBCO) with 10% fetal bovine serum (GIBCO), and 10 ug/ml Blastcidin S HCl (GIBCO) and incubated at 37 °C in 5% CO2. The plates were incubated over-night and then stimulated with various concentrations of compound and R848. The plates were then incubated an additional 20 ± 1 h at 37 °C in 5% CO2 and then the secreted embryonic alkaline phosphatase (SEAP) activity was measured as activation of human TLR7. The SEAP activity was evaluated as follows: pNPP (Invitrogen, USA) was added to the incubated sample (50 μl/well); after 15 min, 4 M sodium hydroxide solution (nacalai tesque, Japan) was added thereto (50 μl/well) to quench the reaction; and the absorbance of each sample was measured at 405 nm with microplate reader SpectraMax M4 (Molecular Devices, USA).
For orientation: A reporter such as luciferase makes a cellular process visible.

The nature of data set [1]: Solubility measurement in isotonic buffer. Type of data set: physicochemical. Particulars: isotonic disodium hydrogen phosphate/citric acid buffer, 25 °C, aqueous buffer, kinetic from dmso stock; pH 7.4 buffer. On the procedure:
Compound was dissolved in dimethyl sulfoxide at 10 mM. A 1.75% disodium hydrogen phosphate aqueous solution and a 5.53% citric acid aqueous solution were mixed while monitoring with a pH meter to prepare an isotonic buffer solution having a pH of 7.4. The dimethyl sulfoxide solution and the isotonic buffer solution of pH 7.4 was mixed and shaken at 110 rpm for 90 min at 25 °C by a constant temperature incubator shaker. After standing for 16–20 h, the mixture was centrifuged to precipitate insoluble matter, and the supernatant was collected. Separately, standard solutions of the compound were prepared by dissolving the compound in a mixture of acetonitrile and water (1:1). The analytical sample and the standard solutions were measured by UHPLC-UV (Waters, USA). The degree of solubility was calculated by comparing the peak area of the analytical sample with standard solutions.

For the compound `CCOc1nc(N)c2nc(-c3cncc(F)c3)n(Cc3ccc(CN4C[C@@H]5C[C@H]4CN5C)cc3)c2n1` [Cpd-6], the “activation of human TLR7, reporter signal” value (shortened to “activation of human TLR7”) at TLR7 (compound 0.001 nM (as headed)) is given as -0.07495; on TLR7 (compound 0.003 nM (as headed)), -0.076; at TLR7 (compound 0.01 nM (as headed)), -0.1139; on TLR7 (compound 0.03 nM (as headed)), -0.0956; on TLR7 (compound 0.1 nM (as headed)) it was -0.074; on TLR7 (compound 0.3 nM (as headed)) it was -0.01435. Moreover, the “activation of human TLR7” value at TLR7 (compound 1 nM (as headed)) is given as -0.0641; at TLR7 (compound 3 nM (as headed)), -0.07475; on TLR7 (compound 10 nM (as headed)), -0.1166; at TLR7 (compound 30 nM (as headed)) it was -0.1098; on TLR7 (compound 100 nM (as headed)) it was -0.12. The solubility at 90 min in data set [1] was greater than 150 µg/mL.
Consider `CCCCOc1nc(N)c2nc(-c3cccnc3)n(Cc3ccccc3)c2n1` [Cpd-5], for which the “activation of TLR7” value at TLR7 is “without causing any inhibition of either TLR8 or TLR9 and activation of TLR7”. For the same compound, the “activation of human TLR7” value at TLR7 (compound 0.001 nM (as headed)) was -0.0519; on TLR7 (compound 0.003 nM (as headed)) it was -0.05305; on TLR7 (compound 0.01 nM (as headed)) it was -0.08885; at TLR7 (compound 0.03 nM (as headed)), -0.06455; on TLR7 (compound 0.1 nM (as headed)), -0.0507; at TLR7 (compound 0.3 nM (as headed)) it was -0.02125. The “activation of human TLR7” value on TLR7 (compound 1 nM (as headed)) was -0.05725; at TLR7 (compound 3 nM (as headed)), -0.0655; on TLR7 (compound 10 nM (as headed)), -0.0852; on TLR7 (compound 30 nM (as headed)), -0.0846; at TLR7 (compound 100 nM (as headed)), -0.0973. The solubility at 90 min in data set [1] was 0.3 µg/mL (≈ 0.801 µM).
Regarding `CCOc1nc(C)c2nc(-c3cncc(F)c3)n(Cc3ccc(CN4C[C@@H]5C[C@H]4CN5C)cc3)c2n1` [Cpd-7], the “activation of human TLR7” value on TLR7 (compound 0.001 nM (as headed)) is reported as -0.0428; at TLR7 (compound 0.003 nM (as headed)) it was -0.04595; on TLR7 (compound 0.01 nM (as headed)) it was -0.1002; at TLR7 (compound 0.03 nM (as headed)), -0.06165; at TLR7 (compound 0.1 nM (as headed)), -0.0434; on TLR7 (compound 0.3 nM (as headed)), -0.02775. The “activation of human TLR7” value at TLR7 (compound 1 nM (as headed)) is listed as -0.0578; at TLR7 (compound 3 nM (as headed)), -0.0693; at TLR7 (compound 10 nM (as headed)), -0.1036; on TLR7 (compound 30 nM (as headed)) it was -0.0961; at TLR7 (compound 100 nM (as headed)), -0.09835. This compound had a solubility at 90 min in data set [1] greater than 150 µg/mL.

Broadly, the solubility is the concentration that dissolves in the medium under given conditions. A high value points to much dissolved substance.
